# Measured values from patent US20180037568A1, “MODULATORS OF METHYL MODIFYING ENZYMES, COMPOSITIONS AND USES THEREOF” (Constellation Pharmaceuticals, Inc., priority 2015, published 2018).
# Molecular target: T1, PRC2 containing wt EZH2 (Homo sapiens, UniProt Q15910)
# T1 construct: made in house
# Assay: EZH2 pep BSA Brij 4.0 LowE (IC50): 3H-SAM incorporation into biotinylated H3 peptide
# Assay type: biochemical
# Settings: 20 pM PRC2 wt EZH2, 0.9 μM 3H-SAM, biotinylated H3 peptide substrate, 2 μM H3K27me3 activating peptide; read-out: EZH2 pep BSA Brij 4.0 LowE (IC50)
# Description: EZH2 Pep BSA Brij 4.0 LowE (IC50):
# Compound potencies were assessed through incorporation of ^3H-SAM into a biotinylated H3 peptide. Specifically, PRC2 containing wt EZH2 (20 pM), (pentameric complexes prepared in-house) was pre-incubated with ^3H-SAM (0.9 μM), 2 μM H3K27me3 activating peptide (H2N-RKQLATKAAR(Kme3)SAPATGGVKKP-amide) and compounds (as 10 point duplicate dose response titrations in DMSO, final assay 0.8% DMSO (v/v)) for 120 min in 50 mM Tris (pH 8.5), 1 mM DTT, 0.07 mM Brij-35, 0.1% BSA, and 0.8% DMSO in a total volume of 12.5 μl. Reaction was initiated with biotinylated H3 substrate peptide (H2N-RKQLATKAAR(Kme1)SAPATGGVKKP-NTPEGBiot) as a 2 μM stock in 12.5 μl of buffer and allowed to react at room temperature for 5 h. Quenching was accomplished by addition of 20 μl of STOP solution (50 mM Tris (pH 8.5), 200 mM EDTA, 2 mM SAH). 35 μl of the quenched solution was transferred to Streptavidin Flashplates, incubated overnight, washed, and read in a TopCount Reader (Perkin Elmer). IC50s were calculated relative to fully active and no enzyme control wells using non-linear least square four parameter fits.
# T1 sequence (Q15910 whole entry): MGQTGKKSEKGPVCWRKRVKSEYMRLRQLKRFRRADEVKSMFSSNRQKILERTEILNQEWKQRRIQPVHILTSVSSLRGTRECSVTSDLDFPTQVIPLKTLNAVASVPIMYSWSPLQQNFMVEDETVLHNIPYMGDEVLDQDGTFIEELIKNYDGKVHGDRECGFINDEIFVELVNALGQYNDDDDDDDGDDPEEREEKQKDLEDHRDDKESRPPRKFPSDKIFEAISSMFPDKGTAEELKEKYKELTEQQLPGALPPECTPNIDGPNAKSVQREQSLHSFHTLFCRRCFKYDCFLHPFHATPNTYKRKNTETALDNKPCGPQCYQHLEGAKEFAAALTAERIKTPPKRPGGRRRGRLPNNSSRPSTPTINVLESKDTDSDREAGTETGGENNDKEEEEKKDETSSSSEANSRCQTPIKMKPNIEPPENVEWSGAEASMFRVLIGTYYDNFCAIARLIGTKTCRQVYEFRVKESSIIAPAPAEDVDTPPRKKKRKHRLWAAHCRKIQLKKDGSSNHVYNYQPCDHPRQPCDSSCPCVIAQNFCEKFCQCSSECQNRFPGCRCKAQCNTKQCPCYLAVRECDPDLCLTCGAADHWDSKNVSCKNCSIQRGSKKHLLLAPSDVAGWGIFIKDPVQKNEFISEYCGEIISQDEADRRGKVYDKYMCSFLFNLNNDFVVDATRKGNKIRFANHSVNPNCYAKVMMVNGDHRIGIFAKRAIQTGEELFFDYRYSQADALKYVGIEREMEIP
# T1 sequence (O75530 whole entry partner): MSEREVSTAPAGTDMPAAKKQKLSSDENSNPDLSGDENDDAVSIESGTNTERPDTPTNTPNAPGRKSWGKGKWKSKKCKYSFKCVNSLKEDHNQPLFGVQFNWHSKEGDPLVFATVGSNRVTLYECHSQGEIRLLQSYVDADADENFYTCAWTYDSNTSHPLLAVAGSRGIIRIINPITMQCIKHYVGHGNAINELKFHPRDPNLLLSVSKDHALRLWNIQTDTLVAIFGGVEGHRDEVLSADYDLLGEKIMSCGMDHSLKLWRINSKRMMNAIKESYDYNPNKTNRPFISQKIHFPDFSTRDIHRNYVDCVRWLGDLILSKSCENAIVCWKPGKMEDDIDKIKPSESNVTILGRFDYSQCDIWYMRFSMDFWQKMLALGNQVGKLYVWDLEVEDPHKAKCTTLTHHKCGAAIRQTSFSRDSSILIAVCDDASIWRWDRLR
# T1 sequence (Q15022 whole entry partner): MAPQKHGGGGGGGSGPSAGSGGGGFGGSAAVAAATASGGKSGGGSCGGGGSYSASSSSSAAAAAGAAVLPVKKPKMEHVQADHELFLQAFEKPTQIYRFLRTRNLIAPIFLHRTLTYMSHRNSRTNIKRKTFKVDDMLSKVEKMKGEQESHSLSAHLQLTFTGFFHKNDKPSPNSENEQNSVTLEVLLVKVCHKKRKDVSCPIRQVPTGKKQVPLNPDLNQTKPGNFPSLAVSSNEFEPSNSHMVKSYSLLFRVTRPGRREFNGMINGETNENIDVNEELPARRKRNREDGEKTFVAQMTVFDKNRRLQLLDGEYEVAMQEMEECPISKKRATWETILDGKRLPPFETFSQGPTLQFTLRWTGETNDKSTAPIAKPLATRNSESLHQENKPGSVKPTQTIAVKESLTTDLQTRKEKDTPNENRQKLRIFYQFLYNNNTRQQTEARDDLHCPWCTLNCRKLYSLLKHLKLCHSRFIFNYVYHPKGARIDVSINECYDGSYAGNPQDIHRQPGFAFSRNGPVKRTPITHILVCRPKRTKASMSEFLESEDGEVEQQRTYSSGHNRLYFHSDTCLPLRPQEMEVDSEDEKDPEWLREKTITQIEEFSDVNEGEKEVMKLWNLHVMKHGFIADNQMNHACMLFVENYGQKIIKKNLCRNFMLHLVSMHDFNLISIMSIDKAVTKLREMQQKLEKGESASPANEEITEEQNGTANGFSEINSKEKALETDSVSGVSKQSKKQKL
# T1 sequence (Q09028 whole entry partner): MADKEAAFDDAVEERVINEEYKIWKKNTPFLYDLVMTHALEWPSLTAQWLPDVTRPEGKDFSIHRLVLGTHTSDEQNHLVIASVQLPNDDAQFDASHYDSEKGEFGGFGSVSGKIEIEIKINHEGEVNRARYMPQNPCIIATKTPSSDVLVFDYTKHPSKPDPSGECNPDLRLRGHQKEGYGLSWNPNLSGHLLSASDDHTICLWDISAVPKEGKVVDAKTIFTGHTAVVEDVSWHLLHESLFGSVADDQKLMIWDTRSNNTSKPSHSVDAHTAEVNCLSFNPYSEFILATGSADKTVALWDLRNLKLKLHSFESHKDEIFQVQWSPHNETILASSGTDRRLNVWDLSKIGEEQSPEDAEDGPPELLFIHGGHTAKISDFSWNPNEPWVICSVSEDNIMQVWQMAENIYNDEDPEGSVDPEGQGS
# T1 sequence (Q6ZN18 whole entry partner): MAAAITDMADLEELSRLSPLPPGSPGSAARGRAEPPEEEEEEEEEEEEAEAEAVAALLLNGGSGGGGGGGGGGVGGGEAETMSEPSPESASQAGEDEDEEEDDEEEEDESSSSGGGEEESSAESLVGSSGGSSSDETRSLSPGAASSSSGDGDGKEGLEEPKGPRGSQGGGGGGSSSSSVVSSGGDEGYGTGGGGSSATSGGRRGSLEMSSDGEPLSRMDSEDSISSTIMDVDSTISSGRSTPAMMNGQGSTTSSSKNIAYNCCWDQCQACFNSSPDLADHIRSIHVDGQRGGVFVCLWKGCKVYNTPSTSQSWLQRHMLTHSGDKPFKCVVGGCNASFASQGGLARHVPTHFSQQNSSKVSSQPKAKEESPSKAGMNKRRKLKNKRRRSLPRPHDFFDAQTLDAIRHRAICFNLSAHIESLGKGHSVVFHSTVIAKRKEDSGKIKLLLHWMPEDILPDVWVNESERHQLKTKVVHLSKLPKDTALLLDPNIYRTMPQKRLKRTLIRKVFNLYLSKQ
row,SMILES,IC50
1,COc1cc(C)[nH]c(=O)c1CNC(=O)c1c(C)n(C(C)C2CCNC(c3cccc(F)c3)C2)c2ccccc12 (stereo not shown) [Compound 51],< 100 nM
2,Cc1cc(C)c(CNC(=O)c2c(C)n(C(C)C3CCNC(c4cccc(F)c4)C3)c3ccccc23)c(=O)[nH]1 (stereo not shown) [Compound 52],< 100 nM
3,Cc1cc(C)c(CNC(=O)c2c(C)n(C(C)C3CCNC(c4cccc(F)c4)C3)c3ccccc23)c(=O)[nH]1 (stereo not shown) [Compound 53],< 100 nM
4,COc1cc(C)[nH]c(=O)c1CNC(=O)c1c(C)n(C(C)C2CCN(C)C(c3cccc(F)c3)C2)c2ccccc12 (stereo not shown) [Compound 55],< 100 nM
5,Cc1cc(C)c(CNC(=O)c2c(C)n(C(C)C3CCN(C)C(c4cccc(F)c4)C3)c3ccccc23)c(=O)[nH]1 (stereo not shown) [Compound 56],< 100 nM
6,COc1cc(C)[nH]c(=O)c1CNC(=O)c1c(C)n(C(C)C2CCN(C)C(c3cccc(F)c3)C2)c2ccccc12 (stereo not shown) [Compound 57],< 100 nM
7,Cc1cc(C)c(CNC(=O)c2c(C)n(C(C)C3CCN(C)C(c4cccc(F)c4)C3)c3ccccc23)c(=O)[nH]1 (stereo not shown) [Compound 61],< 100 nM
8,COc1cc(C)[nH]c(=O)c1CNC(=O)c1c(C)n(C(C)C2CCNC(c3cccc(F)c3)C2)c2ccccc12 (stereo not shown) [Compound 65],< 100 nM
9,COc1cc(C)[nH]c(=O)c1CNC(=O)c1c(C)n(C(C)C2CCN(C(C)=O)C(CC(F)(F)F)C2)c2ccccc12 (stereo not shown) [Compound 75],< 100 nM
10,COc1cc(C)[nH]c(=O)c1CNC(=O)c1c(C)n(C(C)C2CCNC(c3cccc(C(F)(F)F)c3)C2)c2ccccc12 (stereo not shown) [Compound 76],< 100 nM
11,COc1cc(C)[nH]c(=O)c1CNC(=O)c1c(C)n(C(C)C2CCNC(c3cccc(C(F)(F)F)c3)C2)c2ccccc12 (stereo not shown) [Compound 77],< 100 nM
12,COc1cc(C)[nH]c(=O)c1CNC(=O)c1c(C)n(C(C)C2CCN(C(C)=O)C(C)C2)c2ccccc12 (stereo not shown) [Compound 78],< 100 nM
13,COC(=O)N1CCC(C(C)n2c(C)c(C(=O)NCc3c(OC)cc(C)[nH]c3=O)c3ccccc32)CC1C (stereo not shown) [Compound 79],< 100 nM
14,COc1cc(C)[nH]c(=O)c1CNC(=O)c1c(C)n(C(C)C2CCN(C(C)=O)C(CC(F)(F)F)C2)c2ccccc12 (stereo not shown) [Compound 80],< 100 nM
15,COc1cc(C)[nH]c(=O)c1CNC(=O)c1c(C)n(C(C)C2CCN(C(C)=O)C(CC(F)(F)F)C2)c2ccccc12 (stereo not shown) [Compound 81],< 100 nM
16,COC(=O)N1CCC(C(C)n2c(C)c(C(=O)NCc3c(OC)cc(C)[nH]c3=O)c3ccccc32)CC1C (stereo not shown) [Compound 82],100 to 1000 nM

# Same assay, conditions: EZH2 pep BSA Brij 4.0 LowE (IC50), 20 pM PRC2 wt EZH2, 0.9 μM 3H-SAM, biotinylated H3 peptide substrate, 2 μM H3K27me3 activating peptide
row,SMILES,IC50
1,"Cc1cc(C)c(CNC(=O)c2c(C)n(C(C)C3CCNC(C(F)(F)F)C3)c3ccccc23)c(=O)[nH]1 (single isomer, unassigned) [Compound 17, N-((4,6-dimethyl-2-oxo-1,2-dihydropyridin-3-yl)methyl)-2-methyl-1-(1-(2-(trifluoromethyl)piperidin-4-yl)ethyl)-1H-indole-3-carboxamide]",< 100 nM
2,"Cc1cc(C)c(CNC(=O)c2c(C)n(C(C)C3CCN(C)C(C(F)(F)F)C3)c3ccccc23)c(=O)[nH]1 (single isomer, unassigned) [Compound 25, N-((4,6-dimethyl-2-oxo-1,2-dihydropyridin-3-yl)methyl)-2-methyl-1-(1-(1-methyl-2-(trifluoromethyl)piperidin-4-yl)ethyl)-1H-indole-3-carboxamide]",< 100 nM
3,Cc1cc(C)c(CNC(=O)c2c(C)n(C(C)C3CCN(CC(C)(F)F)C(C)C3)c3ccccc23)c(=O)[nH]1 (stereo not shown) [Compound 48],100 to 1000 nM
4,Cc1cc(C)c(CNC(=O)c2c(C)n(C(C)C3CCN(CC(C)(F)F)C(C)C3)c3ccccc23)c(=O)[nH]1 (stereo not shown) [Compound 49],100 to 1000 nM
5,COc1cc(C)[nH]c(=O)c1CNC(=O)c1c(C)n(C(C)C2CCNC(c3ccccc3F)C2)c2ccccc12 (stereo not shown) [Compound 50],< 100 nM
6,CCC1CC(C(C)n2c(C)c(C(=O)NCc3c(OC)cc(C)[nH]c3=O)c3ccccc32)CCN1CC(F)F (stereo not shown) [Compound 54],< 100 nM
7,Cc1cc(C)c(CNC(=O)c2c(C)n(C(C)C3CCN(CC(C)(F)F)C(C)C3)c3ccccc23)c(=O)[nH]1 (stereo not shown) [Compound 58],< 100 nM
8,COc1cc(C)[nH]c(=O)c1CNC(=O)c1c(C)n(C(C)C2CCN(CC(C)(F)F)C(C)C2)c2ccccc12 (stereo not shown) [Compound 64],< 100 nM
9,CCC1CC(C(C)n2c(C)c(C(=O)NCc3c(C)cc(C)[nH]c3=O)c3ccccc32)CCN1CC(F)F (stereo not shown) [Compound 67],< 100 nM
10,Cc1cc(C)c(CNC(=O)c2c(C)n(C(C)C3CCN(CC(C)(F)F)C(C)C3)c3ccccc23)c(=O)[nH]1 (stereo not shown) [Compound 74],< 100 nM
11,Cc1cc(C)c(CNC(=O)c2c(C)n(C(C)C3CCNC(CC(F)(F)F)C3)c3ccccc23)c(=O)[nH]1 (stereo not shown) [Compound 83],< 100 nM
12,COc1cc(C)[nH]c(=O)c1CNC(=O)c1c(C)n(C(C)C2CCNC(CC(F)(F)F)C2)c2ccccc12 (stereo not shown) [Compound 87],100 to 1000 nM
13,CCS(=O)(=O)N1CCC(C(C)n2c(C)c(C(=O)NCc3c(OC)cc(C)[nH]c3=O)c3ccccc32)CC1C (stereo not shown) [Compound 93],100 to 1000 nM
14,CCS(=O)(=O)N1CCC(C(C)n2c(C)c(C(=O)NCc3c(OC)cc(C)[nH]c3=O)c3ccccc32)CC1C (stereo not shown) [Compound 94],100 to 1000 nM

# Same assay, conditions: read-out: EZH2 pep BSA Brij 4.0 LowE (IC50); 20 pM PRC2 wt EZH2, 0.9 μM 3H-SAM, biotinylated H3 peptide substrate, 2 μM H3K27me3 activating peptide
row,SMILES,IC50
1,"Cc1cc(C)c(CNC(=O)c2c(C)n(C(C)C3CCN(C)C(C(F)(F)F)C3)c3ccccc23)c(=O)[nH]1 (single isomer, unassigned) [Compound 26, N-((4,6-dimethyl-2-oxo-1,2-dihydropyridin-3-yl)methyl)-2-methyl-1-(1-(1-methyl-2-(trifluoromethyl)piperidin-4-yl)ethyl)-1H-indole-3-carboxamide]",< 100 nM
2,CCC1CC(C(C)n2c(C)c(C(=O)NCc3c(OC)cc(C)[nH]c3=O)c3ccccc32)CCN1CC(F)F (stereo not shown) [Compound 59],< 100 nM
3,CCC1CC(C(C)n2c(C)c(C(=O)NCc3c(OC)cc(C)[nH]c3=O)c3ccccc32)CCN1CC(F)F (stereo not shown) [Compound 60],< 100 nM
4,CCC1CC(C(C)n2c(C)c(C(=O)NCc3c(OC)cc(C)[nH]c3=O)c3ccccc32)CCN1CC(F)F (stereo not shown) [Compound 62],< 100 nM
5,CCC1CC(C(C)n2c(C)c(C(=O)NCc3c(OC)cc(C)[nH]c3=O)c3ccccc32)CCN1CC(F)F (stereo not shown) [Compound 63],< 100 nM
6,Cc1cc(C)c(CNC(=O)c2c(C)n(C(C)C3CCNC(CC(F)(F)F)C3)c3ccccc23)c(=O)[nH]1 (stereo not shown) [Compound 85],< 100 nM
7,Cc1cc(C)c(CNC(=O)c2c(C)n(C(C)C3CCNC(CC(F)(F)F)C3)c3ccccc23)c(=O)[nH]1 (stereo not shown) [Compound 86],< 100 nM

# Tested on: H3K27me3 mark
# Assay: H3K27me3 Alpha Hela Assay (AlphaLISA)
# Assay type: cell-based
# Settings: Hela cells, 72 hrs; read-out: EZH2 Cell H3K27me3 Alpha HeLa (EC50 K27me3)
# Description: EC50 Measurements for Inhibitors in HeLa Cell Assays
# H3K27me3 Alpha Hela Assay (AlphaLISA). Ten different doses of each test compound (in a series of 3-fold dilutions) were plated in duplicate 384-well tissue culture treated plates (Catalog #781080; Greiner Bio One; Monroe, N.C.). Hela cells grown in culture were trypsinized and counted using a Countess® cell counter (Catalog # C10281; Life Technologies, Grand Island, N.Y.). Cell were diluted to 67,000 cells per mL in 10% DMEM (Catalog #10569-010 Life Technologies, Grand Island, N.Y.) and 15 μL (1,000 cells) were plated into each well using the Biotek MicroFlo™ Select Dispenser (BioTek Instruments, Inc. Vermont, USA),) of the 384-well plate. Plates were incubated at 37° C./5% CO2 for 72 hrs. One of the duplicate plates was processed for HeLa assay and the other for viability.
# To the plate processed for AlphaLISA was added 5 μL per well Cell-Histone Lysis buffer (1×) (Catalog # AL009F1 Perkin Elmer; Waltham, Mass.) and the plate was incubated at RT for 30 minutes on a plate shaker with low speed (Model#4625-Q Thermo Scientific; Waltham, Mass.). Then, 10 μL per well Histone Extraction buffer (catalog # AL009F2; Perkin Elmer; Waltham, Mass.) was added and the plate further incubated at RT for 20 min on plate shaker with low speed. To each well was then added 10 μL per well of a 5× mix of anti-K27me3 acceptor beads plus Biotinylated anti-Histone H3 (C-ter) Antibody (diluted to 3 nM final) (Catalog #AL118 Perkin Elmer; Waltham, Mass.). Dilution of the acceptor beads and then anti-Histone H3 was with 1× Histone Detection buffer (Catalog # AL009F3 Perkin Elmer; Waltham, Mass.) which was produced diluted from the 10× stock provided. The plate was sealed with an aluminum plate sealer and incubated at 23° C. for 60 min. We then added 10 μL 5× solution of Streptavidin Donor beads (Catalog #6760002 Perkin Elmer; Waltham, Mass.) (20 μg/mL final in 1× Histone Detection Buffer), sealed the plate with Aluminum plate sealer and incubated at 23° C. for 30 min. The plates were then read using an EnVision-Alpha Reader (model #2104 Perkin Elmer; Waltham, Mass.).
# Data from both assays was analyzed using Assay Assistant (Constellation Pharmaceuticals In-house product) and Activity Base (IDBS Ltd, Surrey, UK) template. Data files were imported to Assay Assistant and assay conditions were specified. A unique Analysis ID was created and the data files exported to Activity Base. An analysis template was created on Activity Base to measure dose-dependent inhibition of H3K27me3 mark and cell viability respectively. Readout of DMSO wells were used to normalize the data. Resulting curves were fitted using Activity base software Model 205 (IDBS Ltd, Surrey, UK). The data was checked for quality, validated and integrated in excel format using SARview (IDBS Ltd, Surrey, UK).
row,SMILES,EC50
1,"Cc1cc(C)c(CNC(=O)c2c(C)n(C(C)C3CCN(C)C(C(F)(F)F)C3)c3ccccc23)c(=O)[nH]1 (single isomer, unassigned) [Compound 25, N-((4,6-dimethyl-2-oxo-1,2-dihydropyridin-3-yl)methyl)-2-methyl-1-(1-(1-methyl-2-(trifluoromethyl)piperidin-4-yl)ethyl)-1H-indole-3-carboxamide]",> 2000 nM
2,"Cc1cc(C)c(CNC(=O)c2c(C)n(C(C)C3CCN(C)C(C(F)(F)F)C3)c3ccccc23)c(=O)[nH]1 (single isomer, unassigned) [Compound 26, N-((4,6-dimethyl-2-oxo-1,2-dihydropyridin-3-yl)methyl)-2-methyl-1-(1-(1-methyl-2-(trifluoromethyl)piperidin-4-yl)ethyl)-1H-indole-3-carboxamide]",< 400 nM

# Same assay, conditions: Homo sapiens, HeLa, 72 h, Hela cells, read-out: EZH2 Cell H3K27me3 Alpha HeLa (EC50 K27me3)
row,SMILES,EC50
1,"Cc1cc(C)c(CNC(=O)c2c(C)n(C(C)C3CCNC(C(F)(F)F)C3)c3ccccc23)c(=O)[nH]1 (single isomer, unassigned) [Compound 17, N-((4,6-dimethyl-2-oxo-1,2-dihydropyridin-3-yl)methyl)-2-methyl-1-(1-(2-(trifluoromethyl)piperidin-4-yl)ethyl)-1H-indole-3-carboxamide]",< 400 nM
